Assay: Ex vivo biodistribution (gamma counter)
Type: in vivo, healthy male C57BL/6 mice
Details: Hg-197g, 2 h post administration
Procedure: For animal injection, the tracer was prepared at high molar activity. Radiolabeling of H4Tetrathiol (10^–2 M in DMSO; 40 μL for imaging, 20 μL for bioD) (or DMSO, for [^197m/gHg]HgCl2 mice) with [^197m/gHg]HgCl2 (imaging: 26.7 MBq total m + g, 62 μL; bioD: 13.04 MBq total m + g, 31 μL) was performed in a mixture of ammonium acetate buffer (1 M; pH 7; 198 μL for imaging or 149 μL for bioD) and 6 M NaOH (72 μL or 38 μL required to achieve a pH of 7.5 after addition of activity, for imaging or BioD labeling, respectively). The reaction was allowed to stand for 1 h at 37 °C and quantitative (> 99%) non-isolated percentage radiochemical yield (%RCY) was confirmed via the iTLC methods mentioned above. Further, 100 µL of the reaction was diluted with 50 µL of PBS Tween-20 (0.01 M sodium phosphate, 0.15 M NaCl, 0.05% Tween-20) for imaging mice, or 50 µL of the reaction was diluted with 100 µL of PBS Tween-20 for BioD mice. The tracers were prepared immediately before injection to avoid radiolysis and minimize the tracer loss to any surfaces due to its lipophilicity. The injected doses of each isomer, ^197mHg and ^197gHg, were quantified by measuring an aliquot of known volume of each tracer preparation via HPGe gamma spectroscopy and decay corrected for time of injection using the Eqs. (1) and (2).
The study was conducted in compliance with the guidelines set by the Canadian Council on Animal Care (CCAC) and approved by the Animal Care Committee (ACC) at the University of British Columbia (A20-0132). A total of eight healthy male C57BL/6 mice weighing approximately 30 g for group 1 and 25 g for group 2 were used in the study. The mice were divided into two experimental groups: group 1 (n = 4) received free [^197m/gHg]HgCl2, while group 2 (n = 4) received [^197m/gHg]Hg-Tetrathiol. Within each group, one mouse was allocated for imaging, while the rest were designated for ex vivo biodistribution analysis. For SPECT imaging, the designated mice were anesthetized using isoflurane via a precision vaporizer. […] Once anesthetized, each imaging mouse received an intravenous (IV) injection via the lateral tail vein of 150 μL of [^197m/gHg]HgCl2 (0.492 MBq ^197mHg + 3.171 MBq ^197gHg) or [^197m/gHg]Hg-Tetrathiol (0.899 MBq ^197mHg + 4.230 MBq ^197gHg) in PBS Tween-20 (0.01 M Na Phosphate, 0.15 M NaCl, 0.05% Tween-20).
Mice received an IV injection of [^197m/gHg]HgCl2 (0.275 MBq ^197mHg + 1.758 MBq ^197gHg, 150 μL) or [^197m/gHg]Hg-Tetrathiol (0.384 MBq ^197mHg + 1.733 MBq ^197gHg, 150 μL) (n = 3 per group) via the lateral tail vein using a Tailveiner restrainer. After the injection, the mice were returned to their experimental cages and allowed unrestricted movement. Biodistribution studies were conducted 2 h after administration. Mice were humanely euthanized with an overdose of isoflurane followed by cardiac puncture to collect blood pool activity. The organs of interest were fully extracted, cleaned of blood without rinsing, weighed, and analysed for radioactivity using a calibrated gamma counter with the 55–93 keV energy window for ^197gHg and the 110–160 keV energy window for ^197mHg (Packard Cobra II, Perkin Elmer, Waltham, MA, USA). The stomach and intestines were carefully cleaned prior to analysis to remove residual contents. For tissues and fluids that could not be fully removed (muscle, blood and bone) activity values were extrapolated based on standardised organ weights for age- and sex-matched mice tables to ensure accurate normalization (Davies and Morris [1993]; Foster et al. [2014]). The stomach and whole intestines were cleaned before analysis. The radioactivity measurements were decay corrected for time of injection using the Eqs. (1) and (2). The results are reported as the percentage of the injected activity per gram of tissue (%IA/g) and percentage of the injected activity per tissue (%IA/organ).

O=C(CC[S-])OCC(COC(=O)CC[S-])(COC(=O)CC[S-])COC(=O)CC[S-].[Hg+2] [[^197m/gHg]Hg-Tetrathiol]
Animal 1 (%IA/Organ): bladder: 0.00 %IA/Organ | Animal 1 (%IA/Organ): blood: 0.13 %IA/Organ | Animal 1 (%IA/Organ): bone: 3.25 %IA/Organ | Animal 1 (%IA/Organ): brain: 0.01 %IA/Organ | Animal 1 (%IA/Organ): feces: 0.00 %IA/Organ | Animal 1 (%IA/Organ): heart: 0.07 %IA/Organ | Animal 1 (%IA/Organ): kidneys: 1.54 %IA/Organ | Animal 1 (%IA/Organ): large intestine: 0.02 %IA/Organ | Animal 1 (%IA/Organ): liver: 110.52 %IA/Organ | Animal 1 (%IA/Organ): lungs: 0.95 %IA/Organ | Animal 1 (%IA/Organ): muscle: 0.14 %IA/Organ | Animal 1 (%IA/Organ): pancreas: 0.01 %IA/Organ | Animal 1 (%IA/Organ): small intestine: 0.03 %IA/Organ | Animal 1 (%IA/Organ): spleen: 3.22 %IA/Organ | Animal 1 (%IA/Organ): stomach: 0.02 %IA/Organ | Animal 1 (%IA/Organ): tail: 0.69 %IA/Organ | Animal 1 (%IA/Organ): urine: 0.00 %IA/Organ | Animal 1 (%IA/g) g: bladder: 0.05 %IA/g | Animal 1 (%IA/g) g: blood: 0.09 %IA/g | Animal 1 (%IA/g) g: bone: 1.72 %IA/g | Animal 1 (%IA/g) g: brain: 0.03 %IA/g | Animal 1 (%IA/g) g: feces: 0.04 %IA/g | Animal 1 (%IA/g) g: heart: 0.55 %IA/g | Animal 1 (%IA/g) g: kidneys: 4.07 %IA/g | Animal 1 (%IA/g) g: large intestine: 0.12 %IA/g | Animal 1 (%IA/g) g: liver: 85.85 %IA/g | Animal 1 (%IA/g) g: lungs: 7.12 %IA/g | Animal 1 (%IA/g) g: muscle: 0.01 %IA/g | Animal 1 (%IA/g) g: pancreas: 0.06 %IA/g | Animal 1 (%IA/g) g: small intestine: 0.14 %IA/g | Animal 1 (%IA/g) g: spleen: 44.55 %IA/g | Animal 1 (%IA/g) g: stomach: 0.16 %IA/g | Animal 1 (%IA/g) g: tail: 1.37 %IA/g | Animal 1 (%IA/g) g: urine: 0.03 %IA/g | Animal 2 (%IA/Organ): bladder: 0.00 %IA/Organ | Animal 2 (%IA/Organ): blood: 0.17 %IA/Organ | Animal 2 (%IA/Organ): bone: 2.68 %IA/Organ | Animal 2 (%IA/Organ): brain: 0.01 %IA/Organ | Animal 2 (%IA/Organ): feces: 0.00 %IA/Organ | Animal 2 (%IA/Organ): heart: 0.09 %IA/Organ | Animal 2 (%IA/Organ): kidneys: 0.82 %IA/Organ | Animal 2 (%IA/Organ): large intestine: 0.01 %IA/Organ | Animal 2 (%IA/Organ): liver: 133.87 %IA/Organ | Animal 2 (%IA/Organ): lungs: 0.87 %IA/Organ | Animal 2 (%IA/Organ): muscle: 0.22 %IA/Organ | Animal 2 (%IA/Organ): pancreas: 0.01 %IA/Organ | Animal 2 (%IA/Organ): small intestine: 0.02 %IA/Organ | Animal 2 (%IA/Organ): spleen: 4.01 %IA/Organ | Animal 2 (%IA/Organ): stomach: 0.04 %IA/Organ | Animal 2 (%IA/Organ): tail: 0.56 %IA/Organ | Animal 2 (%IA/Organ): urine: 0.00 %IA/Organ | Animal 2 (%IA/g) g: bladder: 0.04 %IA/g | Animal 2 (%IA/g) g: blood: 0.11 %IA/g | Animal 2 (%IA/g) g: bone: 1.37 %IA/g | Animal 2 (%IA/g) g: brain: 0.02 %IA/g | Animal 2 (%IA/g) g: feces: 0.05 %IA/g | Animal 2 (%IA/g) g: heart: 0.74 %IA/g | Animal 2 (%IA/g) g: kidneys: 2.02 %IA/g | Animal 2 (%IA/g) g: large intestine: 0.05 %IA/g | Animal 2 (%IA/g) g: liver: 103.98 %IA/g | Animal 2 (%IA/g) g: lungs: 6.17 %IA/g | Animal 2 (%IA/g) g: muscle: 0.02 %IA/g | Animal 2 (%IA/g) g: pancreas: 0.04 %IA/g | Animal 2 (%IA/g) g: small intestine: 0.07 %IA/g | Animal 2 (%IA/g) g: spleen: 61.57 %IA/g | Animal 2 (%IA/g) g: stomach: 0.32 %IA/g | Animal 2 (%IA/g) g: tail: 1.15 %IA/g | Animal 2 (%IA/g) g: urine: 0.03 %IA/g | Animal 3 (%IA/Organ): bladder: 0.00 %IA/Organ | Animal 3 (%IA/Organ): blood: 0.18 %IA/Organ | Animal 3 (%IA/Organ): bone: 2.26 %IA/Organ | Animal 3 (%IA/Organ): brain: 0.01 %IA/Organ | Animal 3 (%IA/Organ): feces: 0.00 %IA/Organ | Animal 3 (%IA/Organ): heart: 0.09 %IA/Organ | Animal 3 (%IA/Organ): kidneys: 1.16 %IA/Organ | Animal 3 (%IA/Organ): large intestine: 0.02 %IA/Organ | Animal 3 (%IA/Organ): liver: 131.25 %IA/Organ | Animal 3 (%IA/Organ): lungs: 1.12 %IA/Organ | Animal 3 (%IA/Organ): muscle: 0.21 %IA/Organ | Animal 3 (%IA/Organ): pancreas: 0.01 %IA/Organ | Animal 3 (%IA/Organ): small intestine: 0.02 %IA/Organ | Animal 3 (%IA/Organ): spleen: 4.84 %IA/Organ | Animal 3 (%IA/Organ): stomach: 0.09 %IA/Organ | Animal 3 (%IA/Organ): tail: 0.27 %IA/Organ | Animal 3 (%IA/Organ): urine: 0.00 %IA/Organ | Animal 3 (%IA/g) g: bladder: 0.03 %IA/g | Animal 3 (%IA/g) g: blood: 0.13 %IA/g | Animal 3 (%IA/g) g: bone: 1.20 %IA/g | Animal 3 (%IA/g) g: brain: 0.03 %IA/g | Animal 3 (%IA/g) g: feces: 0.00 %IA/g | Animal 3 (%IA/g) g: heart: 0.82 %IA/g | Animal 3 (%IA/g) g: kidneys: 3.17 %IA/g | Animal 3 (%IA/g) g: large intestine: 0.10 %IA/g | Animal 3 (%IA/g) g: liver: 159.50 %IA/g | Animal 3 (%IA/g) g: lungs: 8.45 %IA/g | Animal 3 (%IA/g) g: muscle: 0.02 %IA/g | Animal 3 (%IA/g) g: pancreas: 0.08 %IA/g | Animal 3 (%IA/g) g: small intestine: 0.09 %IA/g | Animal 3 (%IA/g) g: spleen: 77.82 %IA/g | Animal 3 (%IA/g) g: stomach: 0.89 %IA/g | Animal 3 (%IA/g) g: tail: 0.56 %IA/g | Animal 3 (%IA/g) g: urine: 0.03 %IA/g | Animal 4 (%IA/Organ): bladder: 0.00 %IA/Organ | Animal 4 (%IA/Organ): blood: 0.15 %IA/Organ | Animal 4 (%IA/Organ): bone: 2.62 %IA/Organ | Animal 4 (%IA/Organ): brain: 0.01 %IA/Organ | Animal 4 (%IA/Organ): feces: 0.00 %IA/Organ | Animal 4 (%IA/Organ): heart: 0.09 %IA/Organ | Animal 4 (%IA/Organ): kidneys: 1.00 %IA/Organ | Animal 4 (%IA/Organ): large intestine: 0.01 %IA/Organ | Animal 4 (%IA/Organ): liver: 107.31 %IA/Organ | Animal 4 (%IA/Organ): lungs: 0.93 %IA/Organ | Animal 4 (%IA/Organ): muscle: 0.20 %IA/Organ | Animal 4 (%IA/Organ): pancreas: 0.01 %IA/Organ | Animal 4 (%IA/Organ): small intestine: 0.02 %IA/Organ | Animal 4 (%IA/Organ): spleen: 4.62 %IA/Organ | Animal 4 (%IA/Organ): stomach: 0.01 %IA/Organ | Animal 4 (%IA/Organ): tail: 2.67 %IA/Organ | Animal 4 (%IA/Organ): urine: 0.00 %IA/Organ | Animal 4 (%IA/g) g: bladder: 0.07 %IA/g | Animal 4 (%IA/g) g: blood: 0.10 %IA/g | Animal 4 (%IA/g) g: bone: 1.40 %IA/g | Animal 4 (%IA/g) g: brain: 0.02 %IA/g | Animal 4 (%IA/g) g: feces: 0.01 %IA/g
